From US20120171305A1, “Response Prediction in Cancer Treatment Involving p53 Adapted Cancer Therapy” (priority 2011, published 2012)

Test system: stage III colon cancer
Test: Studie 90: fluorouracil-based adjuvant chemotherapy, survival by TP53 genotype
Assay type: in vivo, human
Details: for five-years survival rate: low risk patients (1-3 positive lymph nodes)
Description: Tumor specimens were collected from 411 patients enrolled in a randomised trial of fluorouracil-based adjuvant chemotherapy for stage III colon cancer patients.
Fluorouracil acts according to pathway 1 and is supposed to need a normal p53 for induction of apoptosis. The p53 gene status could be assessed in 389 tumors through standardized, gene specific sequencing of the TP53 gene.

O=c1[nH]cc(F)c(=O)[nH]1 [fluorouracil]
five-year survival (entire stage IIIA cohort): 84.5%
interaction between survival and TP53 genotype (high-risk stage III patients): no interaction
five-years survival rate (TP53 mutated): 64.7%
five-years survival rate (normal TP53 genotype): 81%
interaction with TP53 genotype (mutant TP53 genotype, low-risk stage III patients): negatively interacts
interaction with TP53 genotype (normal p53 genotype, low risk stage III patients (N1 or IIIA and IIIB stage)): positively interacts
five-year survival (stage IIIA, TP53 mutant): 78%
five-year survival (stage IIIA, TP53 normal): 91%
five-year survival (stage IIIB cohort): 63%
five-year survival (stage IIIB, TP53 mutant): 60%
five-year survival (stage IIIB, TP53 normal): 79%
benefit in relation to the TP53 genotype (stage IIIC patients): no differential benefit
